B1: FGF8: fibroblast growth factor 8, reported as an endogenous neural inducer (protein, UniProt P55075 23-233, looked up)
Fibroblast growth factor 8: QEGPGRGPALGRELASLFRAGREPQGVSQQHVREQSLVTDQLSRRLIRTYQLYSRTSGKHVQVLANKRINAMAEDGDPFAKLIVETDTFGSRVRVRGAETGLYICMNKKGKLIAKSNGKGKDCVFTEIVLENNYTALQNAKYEGWYMAFTRKGRPRKGSKTRQHQREVHFMKRLPRGHHTTEQSLRFEFLNYPPFTRSLRGSQRTWAPEPR

What was measured:
Assay type in all cases: cell-based
iPSC line (2.042) = assay: Neural differentiation of iPSC line 2.042, neuron purity by βIII-tubulin/Nestin double stains; settings: only one of 10 μM SB-431542 or 1 μM dorsomorphin in medium on Days −2, −1, 0 and 1; Day 28 (FIG. 3C)
iPS cell line 8004 [1] = assay: Astrocyte purity of iPS cell line 8004 cultures by flow cytometry using GFAP as marker; settings: 10 μM SB-431542 on Days −2, −1, 0, and 1; fed 10% FBS from Day 30; Day 48
Description: (§1) iPS cell line 8004 was differentiated using the procedure of Example 3 with and without 10 μM SB-431542 added to culture medium on Days −2, −1, 0, and 1. On Day 28, neuron purity as determined by TUJ1/Nestin flow cytometry staining was 80% without SB-431542 and 97% with SB-431542. Beginning on Day 30 of the. procedure, cells were fed 90% 1× DMEM-F12/10% FBS every 7 days. Astrocyte outgrowth was first detected on Day 45. On Day 48, cultures were assayed by flow cytometry for astrocyte purity using GFAP as a marker for astrocytes. […] In summary, the methods detailed herein provide for a method to produce cultures of high purity astrocytes in a time efficient manner relative to existing astrocyte differentiation methods.

iPS cell line 8004 [2] = assay: Neuron purity of iPS cell line 8004 by TUJ1/Nestin flow cytometry staining; settings: 10 μM SB-431542 on Days −2, −1, 0, and 1; Day 28
Description: as §1

iPSC line 1729c4 = assay: Neural differentiation of iPSC line 1729c4, purity by flow cytometry with βIII-tubulin/Nestin double stains; settings: 10 ng/mL FGF8 present on Day −3; Day 27
Description: iPS cells were maintained on Matrigel in TeSR medium (Stem Cell Technologies) and sodium citrate split one passage prior to aggregate formation and grown in T150 flasks, but can be scaled for starting cells in other culture formats. Alternate pluripotent cell culture media (such as E8 media: Chen et al., 2011), containing varying concentrations of TGFβ and/or bFGF, can be used to optimize neural differentiation of different iPS cell lines or clones. Pluripotent cell cultures were then “primed” for differentiation three or four days prior to aggregate formation. […]
On Day 0 of the neuron differentiation process (specifically, aggregate formation), cells are harvested from T150 flasks (up to five flasks at one time) and, after media is aspirated, 12 mL of warm TrypLE is added to each flask and the cells are incubated at 37° C. for 7 minutes. […] The tubes may be combined and cells are counted (CEDEX HiRES cell counter). […] Diluted cell stock is counted (CEDEX HiRES cell counter). […]

Row | Molecule | neuron purity by βIII-tubulin/Nestin double stains compared to both inhibitors (iPSC line (2.042)) | GFAP positive cells (astrocyte purity) (iPS cell line 8004 [1]) | neuron purity by TUJ1/Nestin flow cytometry staining (iPS cell line 8004 [2]) | βIII-tubulin/Nestin positive cells (iPSC line 1729c4)
1 | NC(=O)c1ccc(-c2nc(-c3ccc4c(c3)OCO4)c(-c3ccccn3)[nH]2)cc1 [SB-431542] | similarly high neuron purities | 56% | 97% | –
2 | B1 | – | – | – | 90%

— patent publication US9487752B2, “Priming of pluripotent stem cells for neural differentiation” (Cellular Dynamics International, Inc., priority 2011, dated 2016)
